Like-named read-outs stand apart in the source and are kept apart here.
How the values were obtained:
[1] = tested on: acute gouty arthritis in rats induced by sodium urate crystals; experiment: Foot swelling in rats with acute gouty arthritis induced by sodium urate crystals; type: in vivo; settings: for Foot swelling: 16.67 mg/kg once a day, mean ± SD
Experimental: Injecting sodium urate crystals into the joint cavity to establish an acute gouty arthritis model. Its pathological and clinical manifestations are very similar. It is a classic method commonly used in animal experiments to study gouty arthritis. This experiment will explore the effects of UTLOH series drugs on animals with acute gouty arthritis induced by sodium urate.
SPF grade SD rats, half female and half male (200-220 g/mouse), were randomly grouped by weight. The drug was administered once a day, for 3 consecutive days. […] Rats in the normal group were injected with an equal volume of sterile saline to the back of the right ankle joint. The administration was continued after modeling, once a day for 3 consecutive days. The ankle joint and foot volume of the rats in each group were measured respectively before modeling and 2 h, 4 h, 8 h, 24 h and 48 h after modeling.

NO induced by LPS = experiment: Inhibition of LPS-induced NO in RAW 264.7 cells (Greiss reagent); type: cell-based, mice; settings: for IC50: Mus musculus, RAW264.7
Excerpt: Nitric oxide (NO) is a signaling molecule that plays a key role in the pathogenesis of inflammation. Under abnormal conditions, NO is a pro-inflammatory mediator that causes inflammation due to its overproduction. Therefore, the regulation of elevated NO levels by stimulants (such as LPS) has been widely used as a screening method to identify anti-inflammatory drugs. Since NO is oxidized into nitrite and nitrate, the determination of total NO2^−/NO3^− is a conventional method for determining NO levels, and Griess reagent is usually used in this type of experiment.
(§1) This example is taken from a previous publication by Song et al.^[1]. In brief, mice RAW 264.7 cells were treated with increasing doses of each test compound at 37° C. for 1 hour. Thereafter, the cells were attacked with 20 μL/well of LPS (equivalent to a final concentration of 100 ng/mL). The cells were further incubated overnight at 37° C. A commercial ELISA assay kit obtained from R&D Systems (Minneapolis, Minn.) was used to determine the level of PGE2 in the supernatant, and three parallel experiments were performed. The optical density of each well was measured using a BioTek Epoch microplate reader (Winooski, Vt.) set to 450 nm. The NO study was performed in a similar manner, but Greiss reagent was used to monitor the level of NO, and the results were read at 550 nm.

PGE2 induced by LPS = experiment: Inhibition of LPS-induced PGE2 in RAW 264.7 cells (ELISA); type: cell-based, mice; settings: for PGE2 inhibition (%): RAW 264.7 cells, LPS 100 ng/mL, overnight, test concentration not given; for PGE2 inhibition rate (in words): same experimental method as Table 1
Experimental: as §1

[2] = tested on: 10% egg white-induced foot swelling in rats; experiment: 10% egg white-induced foot swelling in rats; type: in vivo; settings: for Foot swelling: 6.67 mg/kg gavage once a day for 3 days, mean ± SD
Excerpt: Injecting 10% egg white into rat paws can cause early acute inflammation such as redness, heat, swelling, and pain in rat paws. In this experiment, the anti-inflammatory effects of UTLOH series compounds were observed by the degree of swelling of the paws of rats after inflammation.
SPF grade SD rats, half female and half male (100-120 g/mouse) were randomly grouped according to body weight. Each group was given the corresponding drugs by gavage, once a day, for 3 consecutive days, with a gavage volume of 1 ml/100 g. Before the experiment, the ankle joint of the right hind foot of each group of rats was marked, and the foot volume of each group of rats was measured twice with a rat foot volume meter, and the average of the two times was taken as the […]. 30 minutes after the last administration, the rats in each group were given a subcutaneous needle in the right hind paw, and injected with 10% fresh egg white solution 0.1 ml/mouse to cause inflammation, establishing a rat model of paw swelling. The post-inflamed foot volume in mice was measured twice at 1 h, 2 h, 3 h, and 4 h after inflammation, and the average of the two times was taken as the post-inflamed foot volume. The normal group was given 1 ml/100 g volume of 0.5% CMC-Na solution by gavage according to body weight.

[3] = RAW 264.7 cells, LPS 100 ng/mL, overnight, read-out: NO IC50 (μM), class
[4] = RAW 264.7 cells, LPS 100 ng/mL, overnight, read-out: NO IC50 (μM), value in brackets
[5] = same method as Table 1, given as 10-50 μM, or <10 μM, read-out: IC50 of NO

SMILES | IC50 (NO induced by LPS; [3]) | IC50 (NO induced by LPS; [4]) | IC50 (NO induced by LPS; [5]) | PGE2 inhibition (%) (PGE2 induced by LPS) | PGE2 inhibition rate (in words) (PGE2 induced by LPS) | other results
COc1cc2c(c(OC)c1OC)-c1ccc(OC)c(=O)cc1[C@@H](NC(C)=O)CC2 [Colchicine, reference compound] | – | – | – | – | – | Foot swelling ([1]; 2 h after modeling): 0.16 ± 0.12 mL; Foot swelling ([1]; 4 h after modeling): 0.21 ± 0.10 mL; Foot swelling ([1]; 8 h after modeling): 0.19 ± 0.10 mL; Foot swelling ([1]; 24 h after modeling): 0.20 ± 0.10 mL; Foot swelling ([1]; 48 h after modeling): 0.07 ± 0.09 mL; degree of foot swelling versus model group (in words) ([1]; gavage, at each time point): significantly lower
Cc1oncc1C(=O)Nc1ccc(C(F)(F)F)cc1 [Leflunomide, reference compound] | > 250 µM | 298 µM | – | 54.0% | – | Foot swelling ([2]; 1 h after inflammation): 0.63 ± 0.14 mL; Foot swelling ([2]; 2 h after inflammation): 0.62 ± 0.15 mL; Foot swelling ([2]; 3 h after inflammation): 0.54 ± 0.14 mL; Foot swelling ([2]; 4 h after inflammation): 0.43 ± 0.11 mL; degree of foot swelling compared with the normal group (in words) ([2]; at 1 h and 2 h): significantly reduced
C/C(O)=C(\C#N)C(=O)Nc1ccc(C(F)(F)F)cc1 [Teriflunomide, reference compound] | 150 to 250 µM | 175 µM | – | 70.2% | – | –
Cc1cc(C(=O)Nc2cccc(O)c2)no1 [UTLOH-4b] | < 10 µM | 7.7 µM | – | 64.0% | – | –
Cc1cc(C(=O)Nc2ccc(O)cc2)no1 [UTLOH-4c] | < 10 µM | 6.3 µM | – | 73.1% | – | inhibition of LPS-induced NO compared with leflunomide and teriflunomide (in words) (NO induced by LPS; compared with leflunomide and teriflunomide): more strongly; inhibition on PGE2 compared to leflunomide (in words) (PGE2 induced by LPS; compared to leflunomide): stronger
Cc1cc(C(=O)Nc2cccc(O)c2O)no1 [UTLOH-4d] | – | – | ≤ 50 µM | – | very good | –
Cc1cc(C(=O)Nc2cc(O)ccc2O)no1 [UTLOH-4f] | – | – | ≤ 50 µM | – | very good | –

Second part, led by results:

IC50 (NO induced by LPS; [3]) | IC50 (NO induced by LPS; [4]) | IC50 (NO induced by LPS; [5]) | SMILES | PGE2 inhibition (%) (PGE2 induced by LPS) | PGE2 inhibition rate (in words) (PGE2 induced by LPS) | other results
– | – | ≤ 50 µM | Cc1cc(C(=O)Nc2c(O)cccc2O)no1 [UTLOH-4g] | – | very good | –
– | – | ≤ 50 µM | Cc1cc(C(=O)Nc2ccc(O)c(O)c2)no1 [UTLOH-4h] | – | very good | –
– | – | ≤ 50 µM | Cc1cc(C(=O)Nc2cc(O)cc(O)c2)no1 [UTLOH-4i] | – | very good | –
– | – | ≤ 50 µM | Cc1cc(C(=O)Nc2c(O)cc(O)cc2O)no1 [UTLOH-4k] | – | very good | –

From patent US11618738B2, “Compound and application thereof in treating inflammation or inflammation-related diseases” (SICHUAN CENTER FOR TRANSLATIONAL MEDICINE OF TRADITIONAL …, priority 2017, dated 2023)
